From ChEMBL document CHEMBL5252528, “Transient Receptor Potential Melastatin 8 Channel (TRPM8) Modulation: Cool Entryway for Treating Pain and Cancer” (J Med Chem, 2016) come the findings set out here.

Assay [1] concerns the target T1, Transient receptor potential cation channel subfamily M member 8 (Homo sapiens, UniProt Q7Z2W7). The experiment in a line: […] activity at human TRMP8 expressed in HEK293 cells incubated for 24 hrs by HTS assay. It counts as cell-based.
Assay [2] addresses T1, Transient receptor potential cation channel subfamily M member 8. The experiment in a line: Antagonist activity at TRPM8 (unknown origin).
Assay [3] has the same target. Kind of assay: Agonist activity at TRPM8 (unknown origin) by fluorometric imaging plate reader analysis.
The target in assay [4] is Transient receptor potential cation channel subfamily V member 1 (Homo sapiens, UniProt Q8NER1). Kind of assay: Modulation of TRPV1 (unknown origin) by fluorometric imaging plate reader analysis.
The subject of assay [5] is Rattus norvegicus. Kind of assay: Reversal of icilin induced behaviours in rat at 10 mg/kg, po relative to control. It counts as functional.
The species named for assay [6] is Rattus norvegicus. Kind of assay: Antihypersensitivity activity at rat assessed as reduction in pain relative to control. It counts as functional.
The target of assay [7] is T1, Transient receptor potential cation channel subfamily M member 8. Kind of assay: Agonist activity at human recombinant TRPM8.
Assay [8] shares this target. The experiment in a line: Agonist activity at TRPM8 (unknown origin).
Assay [9] addresses Transient receptor potential cation channel subfamily A member 1 (Homo sapiens, UniProt O75762). The experiment in a line: Agonist activity at TRPA1 (unknown origin).
Assay [10] addresses T1, Transient receptor potential cation channel subfamily M member 8. The experiment in a line: Antagonist activity at TRPM8 (unknown origin) by fluorescence based assay.
For assay [11], the target named is Transient receptor potential cation channel subfamily M member 8 (Rattus norvegicus) (UniProt Q8R455). Kind of assay: In vivo antagonist activity at TRPM8 in po dosed rat assessed as shaking behaviour. Format: functional, organism-based.
Transient receptor potential cation channel subfamily M member 8 (Rattus norvegicus), sequence (Q8R455 whole entry, looked up): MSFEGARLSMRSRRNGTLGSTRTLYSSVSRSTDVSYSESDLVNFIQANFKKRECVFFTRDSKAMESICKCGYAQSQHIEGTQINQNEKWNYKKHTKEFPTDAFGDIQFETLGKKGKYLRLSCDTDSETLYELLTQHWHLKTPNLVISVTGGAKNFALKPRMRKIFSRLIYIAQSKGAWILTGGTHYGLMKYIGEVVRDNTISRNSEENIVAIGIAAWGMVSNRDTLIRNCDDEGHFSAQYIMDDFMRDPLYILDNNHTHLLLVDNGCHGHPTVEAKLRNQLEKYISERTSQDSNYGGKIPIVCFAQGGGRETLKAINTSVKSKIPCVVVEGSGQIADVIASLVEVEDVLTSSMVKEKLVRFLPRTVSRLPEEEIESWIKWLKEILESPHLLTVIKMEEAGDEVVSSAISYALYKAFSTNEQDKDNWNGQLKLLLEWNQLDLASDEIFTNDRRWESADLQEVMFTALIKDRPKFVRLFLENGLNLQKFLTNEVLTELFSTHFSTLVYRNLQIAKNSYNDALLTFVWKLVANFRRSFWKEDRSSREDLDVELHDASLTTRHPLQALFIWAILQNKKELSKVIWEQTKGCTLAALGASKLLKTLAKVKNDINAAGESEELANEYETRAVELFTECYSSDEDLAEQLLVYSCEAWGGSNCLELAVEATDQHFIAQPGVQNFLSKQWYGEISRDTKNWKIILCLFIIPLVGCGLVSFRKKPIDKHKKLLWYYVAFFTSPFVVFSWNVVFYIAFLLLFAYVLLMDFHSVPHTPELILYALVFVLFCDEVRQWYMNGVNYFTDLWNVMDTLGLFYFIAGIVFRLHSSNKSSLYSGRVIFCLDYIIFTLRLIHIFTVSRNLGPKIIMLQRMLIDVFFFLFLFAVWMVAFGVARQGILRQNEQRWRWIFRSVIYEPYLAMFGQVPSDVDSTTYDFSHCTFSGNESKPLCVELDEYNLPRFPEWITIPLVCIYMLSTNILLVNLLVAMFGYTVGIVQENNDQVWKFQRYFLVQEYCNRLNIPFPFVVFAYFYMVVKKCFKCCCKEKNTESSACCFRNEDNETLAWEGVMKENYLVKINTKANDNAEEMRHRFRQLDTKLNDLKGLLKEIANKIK
The target in assay [12] is T1, Transient receptor potential cation channel subfamily M member 8. Kind of assay: Antagonist activity at human TRPM8 expressed in […] induced HEK293 cells. Format: cell-based.
Assay [13] has the same target. The experiment in a line: Antagonist activity at human TRMP8 incubated for 24 hrs. It counts as cell-based, HEK293.
Assay [14] has the same target. Kind of assay: Antagonist activity at human TRPM8 expressed in HEK293 cells assessed as reduction in menthol induced calcium influx. It counts as cell-based.
For assay [15], the system named is Rattus norvegicus. The experiment in a line: Antihypersensitivity activity at rat assessed as reduction in wet-dog shakes at 1 mg/kg relative to control. Format: functional.
In assay [16] the target is T1, Transient receptor potential cation channel subfamily M member 8. Kind of assay: Antagonist activity at human TRPM8 expressed in CHO cells. Format: cell-based.
For assay [17], the system named is Rattus norvegicus. Kind of assay: Reversal of icilin induced behaviours in rat at 30 mg/kg, po relative to control. Format: functional.
Assay [18] deals with Transient receptor potential cation channel subfamily M member 8 (Mus musculus, UniProt Q8R4D5). Kind of assay: Agonist activity at mouse TRMP8 expressed in HEK293 cells. It counts as cell-based.
Transient receptor potential cation channel subfamily M member 8 (Mus musculus, UniProt Q8R4D5), sequence (Q8R4D5 whole entry): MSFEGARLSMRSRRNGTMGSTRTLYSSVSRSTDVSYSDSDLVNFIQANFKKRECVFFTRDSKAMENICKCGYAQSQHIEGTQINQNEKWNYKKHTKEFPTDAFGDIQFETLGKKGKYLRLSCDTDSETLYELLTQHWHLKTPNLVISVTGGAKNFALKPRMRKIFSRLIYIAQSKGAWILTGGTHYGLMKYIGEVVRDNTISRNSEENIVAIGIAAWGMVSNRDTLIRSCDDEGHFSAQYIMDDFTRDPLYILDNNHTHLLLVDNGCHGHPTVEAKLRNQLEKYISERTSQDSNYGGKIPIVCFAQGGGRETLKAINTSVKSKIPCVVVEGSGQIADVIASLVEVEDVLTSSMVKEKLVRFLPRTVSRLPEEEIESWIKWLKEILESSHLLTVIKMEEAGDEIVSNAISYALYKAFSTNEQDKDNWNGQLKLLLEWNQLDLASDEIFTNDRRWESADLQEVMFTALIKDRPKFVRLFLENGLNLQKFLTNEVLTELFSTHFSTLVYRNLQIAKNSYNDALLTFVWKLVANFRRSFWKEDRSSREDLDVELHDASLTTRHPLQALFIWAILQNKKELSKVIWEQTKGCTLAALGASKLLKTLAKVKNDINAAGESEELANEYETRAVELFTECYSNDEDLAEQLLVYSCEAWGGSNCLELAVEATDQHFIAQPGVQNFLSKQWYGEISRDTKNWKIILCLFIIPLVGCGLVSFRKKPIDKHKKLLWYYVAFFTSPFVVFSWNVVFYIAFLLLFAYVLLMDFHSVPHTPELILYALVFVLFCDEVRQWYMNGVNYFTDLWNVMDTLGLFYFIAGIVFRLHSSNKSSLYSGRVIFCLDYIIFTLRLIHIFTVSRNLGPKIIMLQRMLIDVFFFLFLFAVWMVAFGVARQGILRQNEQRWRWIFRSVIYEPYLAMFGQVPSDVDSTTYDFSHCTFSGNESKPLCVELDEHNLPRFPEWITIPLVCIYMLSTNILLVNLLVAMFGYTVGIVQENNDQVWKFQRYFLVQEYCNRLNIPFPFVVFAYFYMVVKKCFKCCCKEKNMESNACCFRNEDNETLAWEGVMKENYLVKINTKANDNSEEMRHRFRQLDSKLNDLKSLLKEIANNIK
The target in assay [19] is T1, Transient receptor potential cation channel subfamily M member 8. Kind of assay: Agonist activity at human TRMP8 expressed in HEK293 cells. It counts as cell-based.
The subject of assay [20] is Rattus norvegicus. Kind of assay: Antihypersensitivity activity at carrageenan induced rat assessed as reduction in heat hypersensitivity at 30 mg/kg, po relative to control. Format: functional.
Assay [21] concerns the target T1, Transient receptor potential cation channel subfamily M member 8. The experiment in a line: […] activity at human TRMP8 expressed in HEK293 cells measured after 24 hrs of menthol activation by patch clamp assay. Format: cell-based.
The species entered for assay [22] is Rattus norvegicus. The experiment in a line: Antihypersensitivity activity at rat assessed as reduction in wet-dog shakes relative to control. It counts as functional.
The species entered for assay [23] is Rattus norvegicus. Kind of assay: Antihypersensitivity activity at rat assessed as cardiovascular pressor responses relative to control. Format: functional.
Assay [24] concerns the target T1, Transient receptor potential cation channel subfamily M member 8. The experiment in a line: […] activity at human TRMP8 expressed in HEK293 cells measured after 24 hrs of cold activation by patch clamp assay. Format: cell-based. (In patch-clamp work, channel activity is measured electrically.)
In assay [25] the test system is Rattus norvegicus. The experiment in a line: Antinociceptive activity at rat assessed as reduction in pain at 30 mg/kg, po relative to control. It counts as functional.
For assay [26], the system named is Rattus norvegicus. The experiment in a line: Antihypersensitivity activity at cfa induced rat assessed as thermal and mechanical hyperalgesia at 10 mg/kg, po relative to control. Format: functional.
Assay [27] addresses T1, Transient receptor potential cation channel subfamily M member 8. Kind of assay: Antagonist activity at human TRPM8 expressed in HEK293 cells. Format: cell-based.
For assay [28], the system named is Rattus norvegicus. Kind of assay: Antihypersensitivity activity at icilin induced rat assessed as reduction in wet-dog shakes at 3 mg/kg relative to control. Format: functional.

T1 sequence (Q7Z2W7 whole entry): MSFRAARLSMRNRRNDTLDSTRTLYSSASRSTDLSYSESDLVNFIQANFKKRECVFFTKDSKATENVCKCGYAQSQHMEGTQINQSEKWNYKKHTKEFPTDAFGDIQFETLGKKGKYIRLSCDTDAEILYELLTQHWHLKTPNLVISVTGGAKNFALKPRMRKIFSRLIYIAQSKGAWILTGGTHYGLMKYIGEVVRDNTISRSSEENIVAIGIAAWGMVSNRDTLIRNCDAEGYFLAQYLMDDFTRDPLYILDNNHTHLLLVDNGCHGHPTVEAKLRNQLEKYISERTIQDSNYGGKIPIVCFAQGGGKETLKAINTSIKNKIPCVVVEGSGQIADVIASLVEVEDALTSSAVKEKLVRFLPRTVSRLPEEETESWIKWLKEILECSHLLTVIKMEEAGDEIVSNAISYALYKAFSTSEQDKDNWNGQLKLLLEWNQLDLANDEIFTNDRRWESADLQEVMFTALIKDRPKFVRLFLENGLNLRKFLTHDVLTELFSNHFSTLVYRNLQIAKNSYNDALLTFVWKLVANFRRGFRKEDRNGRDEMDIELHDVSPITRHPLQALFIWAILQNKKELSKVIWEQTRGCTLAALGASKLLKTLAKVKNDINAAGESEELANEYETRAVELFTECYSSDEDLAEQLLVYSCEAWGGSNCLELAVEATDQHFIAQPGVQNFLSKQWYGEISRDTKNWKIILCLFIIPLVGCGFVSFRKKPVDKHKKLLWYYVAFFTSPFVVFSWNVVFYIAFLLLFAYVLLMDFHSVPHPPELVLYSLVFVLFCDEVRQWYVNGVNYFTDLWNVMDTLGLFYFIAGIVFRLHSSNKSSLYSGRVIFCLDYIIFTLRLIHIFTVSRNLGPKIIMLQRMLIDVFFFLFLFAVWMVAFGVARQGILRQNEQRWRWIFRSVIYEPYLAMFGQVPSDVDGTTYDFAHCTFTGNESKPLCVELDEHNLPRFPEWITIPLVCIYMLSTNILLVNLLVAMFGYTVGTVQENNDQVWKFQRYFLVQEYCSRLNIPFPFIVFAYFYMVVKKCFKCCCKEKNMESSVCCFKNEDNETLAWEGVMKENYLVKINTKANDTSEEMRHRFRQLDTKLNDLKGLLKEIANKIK
Transient receptor potential cation channel subfamily A member 1, sequence (O75762 whole entry): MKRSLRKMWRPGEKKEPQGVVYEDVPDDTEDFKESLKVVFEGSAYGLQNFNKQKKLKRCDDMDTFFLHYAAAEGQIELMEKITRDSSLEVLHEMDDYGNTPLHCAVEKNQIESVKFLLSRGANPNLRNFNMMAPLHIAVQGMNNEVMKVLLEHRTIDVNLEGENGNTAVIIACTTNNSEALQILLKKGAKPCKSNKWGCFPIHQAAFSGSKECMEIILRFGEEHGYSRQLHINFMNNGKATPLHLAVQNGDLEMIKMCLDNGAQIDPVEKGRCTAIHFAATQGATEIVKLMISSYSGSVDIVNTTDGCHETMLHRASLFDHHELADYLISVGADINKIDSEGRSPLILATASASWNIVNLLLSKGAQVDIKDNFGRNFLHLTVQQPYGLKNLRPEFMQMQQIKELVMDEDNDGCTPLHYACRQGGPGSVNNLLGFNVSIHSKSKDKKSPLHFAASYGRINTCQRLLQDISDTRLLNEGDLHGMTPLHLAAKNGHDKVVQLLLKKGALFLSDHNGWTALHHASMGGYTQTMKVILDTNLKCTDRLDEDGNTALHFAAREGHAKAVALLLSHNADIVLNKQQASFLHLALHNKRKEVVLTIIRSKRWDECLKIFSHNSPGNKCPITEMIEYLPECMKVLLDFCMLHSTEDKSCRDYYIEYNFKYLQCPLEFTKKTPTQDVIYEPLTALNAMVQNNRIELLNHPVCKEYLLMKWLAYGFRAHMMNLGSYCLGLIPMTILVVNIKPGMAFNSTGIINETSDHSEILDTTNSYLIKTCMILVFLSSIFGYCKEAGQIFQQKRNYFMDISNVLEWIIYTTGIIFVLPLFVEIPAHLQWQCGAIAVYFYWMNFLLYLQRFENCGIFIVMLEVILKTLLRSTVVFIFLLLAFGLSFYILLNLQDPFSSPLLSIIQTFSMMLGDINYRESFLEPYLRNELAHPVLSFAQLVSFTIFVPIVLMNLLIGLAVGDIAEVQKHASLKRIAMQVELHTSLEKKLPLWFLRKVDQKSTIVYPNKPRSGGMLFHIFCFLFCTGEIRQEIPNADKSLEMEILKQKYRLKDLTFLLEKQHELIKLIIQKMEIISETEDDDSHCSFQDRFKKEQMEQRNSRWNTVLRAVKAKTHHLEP

By IC50 is commonly meant the concentration at which inhibition is half-maximal. On to `Cc1c(N(Cc2ccc(OC(F)(F)F)cc2)S(=O)(=O)CCN2CCC(c3ccccc3)CC2)sc2ccccc12`, for which the IC50 in assay [1] turned out to be 0.026 µM. The molecule `COc1cc(CNC(=O)CCCC/C=C/C(C)C)ccc1O` [CAPSAICIN] showed a concentration for half-maximal inhibition (IC50) in assay [2] of 1 µM. What is called EC50 is the concentration that produces a half-maximal response. In assay [3], `COc1ccc2c(c1)n(CCN)c(=O)n2C(=O)[C@@H]1C[C@H](C)CC[C@H]1C(C)C` displayed an EC50 of less than 5 µM. In the case of `COc1ccc(CCCOC(Cn2ccnc2)c2ccc(OC)cc2)cc1` (stereo not drawn), in [2], the half-maximal inhibitory concentration (IC50) was 0.8 µM. Turning to `c1ccc(CN(CCc2c[nH]c3ccccc23)Cc2ccccc2)cc1`, the half-inhibitory concentration (IC50) in [2] was 0.8 µM; in assay [4] it was 0.035 µM. Take `CCCCCc1cc(O)c2c(c1)OC(C)(C)[C@@H]1CCC(C)=C[C@@H]21` [DRONABINOL]: the IC50 in [2] is 0.16 µM. Molecule `CCCCC/C=C/C/C=C\C/C=C/C/C=C/CCCC(=O)NCCc1ccc(O)c(O)c1` came in with an IC50 in assay [2] of 0.7 µM. With `FC(F)(F)c1ccccc1-c1cc(C(F)(F)F)c2[nH]c(C3=NOC4(CCCCC4)C3)nc2c1`, the Activity in assay [5] is on record as 98%. The “inhibition (INH)” value in assay [6] is recorded as 83%. For the molecule `COc1cnc(-c2ccccn2)nc1CC(C)C`, the EC50 in [7] was 0.1 µM.

On to `Cc1c(N(Cc2ccc(F)c(C(F)(F)F)c2)S(=O)(=O)N2CCC(C(=O)O)CC2)sc2ccccc12`, for which, in assay [1], the IC50 turned out to be 0.026 µM. With `CCCCCc1cc2c(c(O)c1C(=O)O)[C@@H]1C=C(C)CC[C@H]1C(C)(C)O2` [DELTA9-TETRAHYDROCANNABINOLIC ACID A], in [2], half-maximal inhibition (IC50) required 0.15 µM. Consider `CCCCC/C=C/C/C=C\C/C=C/C/C=C/CCCC(=O)NCCO`, for which the IC50 in assay [2] is 0.15 µM. In [2], `C[C@H](N)[C@H](O)C/C=C\C/C=C\C/C=C\C/C=C\C/C=C\C/C=C\CCCCCC[C@@H](O)[C@H](C)N` displayed an IC50 of 6 µM.

`COc1ccc(NC(=O)[C@@H]2C[C@H](C)CC[C@H]2C(C)C)c(NC(=O)[C@@H](C)N)c1` showed an EC50 in assay [3] of 3 µM. `Clc1ccc(-c2nnc(N3CCOCC3)n2-c2ccccc2)cc1`: the concentration giving a half-maximal response (EC50) amounted to 45 µM in assay [8] and 4 µM in assay [9].

The molecule `C=C(C)[C@@H]1CCC(C)=C[C@H]1c1c(O)cc(CCCCC)cc1O` [CANNABIDIOL] displayed an IC50 in assay [2] of 0.06 µM.

Consider `C=CCc1cc(OC)c(OC(C)C(O[C@@H]2C[C@H](C)CC[C@H]2C(C)C)c2ccc(OC)c(OC)c2)c(OC)c1` (stereo partly drawn), for which, in [3], the EC50 was determined as 10 µM. In [2], `Clc1ccc(COC(Cn2ccnc2)c2ccc(Cl)cc2Cl)cc1` (stereo not drawn) [ECONAZOLE] came in with an IC50 of 0.42 µM.

For `COC(=O)C(NCc1ccccc1)[C@H](Cc1ccccc1)NC(=O)OCc1ccccc1` (stereo partly drawn), it took 3 µM to reach half-maximal inhibition in assay [10] (IC50). `COc1cc(CN(CCN)c2nc3ccccc3s2)ccc1OCc1ccccc1F` yielded an IC50 in [2] of less than 0.02 µM. For orientation: ED50 means the dose that gives a 50% effect, or the effect in half of the subjects. In the case of `O=C(O)c1ccc(S(=O)(=O)N(Cc2ccc(OC(F)(F)F)cc2)c2ncc(C(F)(F)F)cc2Cl)cc1`, in assay [11], the 50% effective dose (ED50) came to 0.65 mg/kg. Regarding `NCCc1c[nH]c2ccc(Oc3ccccc3)cc12`, in [12], 0.34 µM corresponded to half-maximal inhibition (IC50). Regarding `CCn1c(N(Cc2ccc(C(F)(F)F)cc2)S(=O)(=O)c2ccccc2)nc2cc(F)ccc21`, 0.006 µM corresponded to half-maximal inhibition in [13] (IC50).

On to `Cc1ccc2nc(C(F)(F)F)n(-c3ccc(C(=O)CN4C(=O)NC5(CCC(F)(F)CC5)C4=O)cc3)c2n1`, for which, in assay [14], the IC50 is less than 0.01 µM. `CC(C)[C@@H]1CC[C@@H](C)C[C@H]1OC(=O)[C@@H](C)O` showed an EC50 in assay [3] of 160 µM.

Turning to `CCCCCc1cc(O)c(C/C=C(\C)CCC=C(C)C)c(O)c1` [CANNABIGEROL], in assay [2], it took 0.16 µM to reach half-maximal inhibition (IC50).

In [13], `CCn1/c(=N/S(=O)(=O)c2ccccc2)n(Cc2ccc(C(F)(F)F)c(F)c2)c2cc(C(F)(F)F)ccc21` displayed an IC50 of 0.005 µM. As usually defined, the inhibition in vivo is the change of the read-out against control, counted positive when it falls. Take `O=C(N[C@]1(c2ccc(OC(F)(F)F)cc2)CCOc2cccnc21)c1ccc2[nH]cnc2c1`: the inhibition in vivo at 1 mg/kg in [15] is greater than 90%. This molecule also returned an IC50 in [16] of 0.004 µM. With `CC(C)OP(=O)(OC(C)C)[C@@H](Cc1ccc(F)c(C(F)(F)F)c1)c1sc2ccccc2c1Br`, in [17], the Activity is on record as 80%. Moreover, the IC50 in assay [1] came to 0.009 µM. Regarding `CC12CCC(CC1)C(C)(C)O2` [EUCALYPTOL], the midpoint of the response in assay [18], the EC50, lay at 7000 µM. For `C=CCc1ccc(O)c(OC)c1` [EUGENOL], in [19], the EC50 stood at 66 µM.

In turn, `Clc1ccccc1C(c1ccccc1)(c1ccccc1)n1ccnc1` [CLOTRIMAZOLE] yielded an IC50 in [2] of 8 µM. On to `Cc1c(N(Cc2ccc(F)c(C(F)(F)F)c2)S(=O)(=O)c2ccc(C(=O)O)cc2)sc2ccccc12`, for which the results for the inhibition in vivo at 30 mg/kg in assay [20] and in [25] were 64% and 69%, respectively. Further, the IC50 in [21] was determined as 0.0011 µM; in [24] it was 0.0023 µM. Moreover, the ED50 in assay [22] was 2.5 mg/kg. Further, the “inhibition (INH)” value in assay [23] is given as 75%. Further, in [26], the Activity turned out to be 91%. Molecule `CC(C)=CCC/C(C)=C/CO` [GERANIOL] had a half-maximal effective concentration (EC50) in [18] of 6000 µM. With `COc1cc(CN(CCN)C(=O)NC(C)c2ccccc2)ccc1OCc1ccccc1` (stereo not drawn), half-maximal inhibition in assay [27] (IC50) was put at 0.05 nM.

In the case of `CC(C)[C@@H]1CC[C@@H](C)C[C@H]1C(=O)NCC(NC(=O)[C@H](C)N)c1ccccc1` (stereo partly drawn), in assay [3], the EC50 was less than 5 µM. In assay [8], `Cc1cc(NC(C)C)no1` registered an EC50 of 0.1 µM. For the molecule `C=C(C)[C@]12C[C@@H](C)[C@@]34OC(Cc5ccccc5)(O[C@@H]1C3C=C(COC(=O)Cc1ccc(O)c(OC)c1)C[C@]1(O)C(=O)C(C)=C[C@@H]41)O2` (stereo partly drawn), in [2], it took 0.15 µM to reach half-maximal inhibition (IC50).

In turn, `COc1nc(-c2ccccc2Cl)cc2nc(-c3c(Cl)c(C(C)(C)C)nn3C)[nH]c12` yielded an IC50 in [13] of 0.0035 µM. Take `CC(C)[C@@H]1CC[C@@H](C)C[C@H]1C(=O)Nc1ccc(S(=O)(=O)Nc2ncccn2)cc1`: in assay [3], the midpoint of the response, the EC50, lay at 4 µM. In assay [3], `COc1ccc(NC(=O)[C@@H]2C[C@H](C)CC[C@H]2C(C)C)cc1` [ACOLTREMON] yielded an EC50 of 12 µM. On to `COc1ccccc1C(=O)N([C@H]1CCc2c(F)cc(Cl)cc21)[C@@H](C(N)=O)c1ccccc1`, for which, in assay [28], the inhibition in vivo at 3 mg/kg turned out to be 100%.
